Results: patent US20150282489A1, “SYNERGISTIC FUNGICIDAL COMPOSITIONS CONTAINING LACTOPEROXIDASE SYSTEM” (DSM IP ASSETS B.V., priority 2012, published 2015)

What was measured:
[1] = test system: powdery mildew spores (spores of Oidium neolycopersici); assay: Treatment of tomato plants against mildew disease (Example 2, lactoperoxidase system applied first, natamycin after one hour); format: in vivo, Oidium neolycopersici on tomato plants
Description: (§1) Tomato plants were grown in a greenhouse using well known methods. Twenty-five days after planting, the tomato plants were inoculated with powdery mildew spores (spores of Oidium neolycopersici). Fourteen days after the tomato plants were inoculated with the spores, the plants were treated with: All compositions comprising natamycin comprised glycerol (2.5 ml/l ) and polyether trisiloxane (BREAK-TRU®; 0.25 ml/l ). The lactoperoxidase system comprised lactoperoxidase, potassium iodide, potassium thiocyanate and a hydrogen peroxide source. When the lactoperoxidase system was used alone, ADDIT, a rapeseed-oil based adjuvant, was added to the lactoperoxidase system. The tomato plants were sprayed with 2000 lof the respective composition per ha, corresponding to a rate of about 130 ml of the respective composition per plant. The trial was performed on four plots with each plot containing 5 tomato plants. Powdery mildew growth was assessed in a twofold manner: (i) the number of visible colonies on 2 marked leafs of each tomato plant were counted; and (ii) the antifungal activity (in %) of the individual and combined active ingredients was determined by calculating the reduction in mould growth observed on the marked leafs of the tomato plants that were treated with the antifungal composition in comparison to the mould growth on the marked leafs of the tomato plants that were treated with the control composition. The expected antifungal activity (E in %) of the combined antifungal composition comprising both active ingredients was calculated according to the Colby equation (Colby, 1967): E=X+Y−[(X·Y)/100] wherein X and Y are the observed antifungal activities (in %) of the individual active ingredients X and Y, respectively. If the observed antifungal activity (O in %) of the combination exceeds the expected antifungal activity (E in %) of the combination and the synergy factor O/E is thus >1.0, the combined application of the active ingredients leads to a synergistic antifungal effect. The experiment was done as described in Example 1, with the proviso that first of all the lactoperoxidase system was applied to the tomato plants and after one hour (when the tomato plants were dry again) the natamycin composition was applied.

[2] = test system: powdery mildew spores (spores of Oidium neolycopersici); assay: Treatment of tomato plants against mildew disease (Example 1, natamycin and lactoperoxidase system mixed before application); format: in vivo, Oidium neolycopersici on tomato plants
Description: as §1, with “with: a) a composition comprising natamycin (1500 ppm), b) a composition comprising a lactoperoxidase system, or c) a composition comprising natamycin (1500 ppm) and a lactoperoxidase system (natamycin and the lactoperoxidase system were mixed before application to the tomato plants). As a control, untreated tomato plants were used.” for “with:”, “effect.” for “effect. The experiment was done as described in Example 1, with the proviso that first of all the lactoperoxidase system was applied to the tomato plants and after one hour (when the tomato plants were dry again) the natamycin composition was applied.”

C[C@@H]1C/C=C/C=C/C=C/C=C/[C@H](O[C@@H]2O[C@H](C)[C@@H](O)[C@H](N)[C@@H]2O)C[C@@H]2O[C@](O)(C[C@@H](O)C[C@H]3O[C@@H]3/C=C/C(=O)O1)C[C@H](O)[C@H]2C(=O)O [Natamcyin, natamycin]
Change in visible fungal colonies at 9 days after application ([1]; 9 days after application, combination applied sequentially): increase in visible fungal colonies
Average number of fungal colonies per tomato leaf, Day 9 ([1]; 9 days after application, combination: lactoperoxidase system first, natamycin after one hour): 11.9
Average number of fungal colonies per tomato leaf, Day −1 ([1]; one day before application (baseline), combination applied sequentially): 6.1
Average number of fungal colonies per tomato leaf, Day 9 corrected for Day −1 ([1]; positive = increase, negative = decrease from day −1 to day 9, combination applied sequentially): 5.8
Change in visible fungal colonies at 9 days after application ([2]; 9 days after application of the respective compositions): increase in visible fungal colonies
Average number of fungal colonies per tomato leaf, Day 9 ([2]; 9 days after application, natamycin 1500 ppm, spray 2000 l/ha): 11.9
Average number of fungal colonies per tomato leaf, Day −1 ([2]; one day before application of the composition (baseline), natamycin 1500 ppm, spray 2000 l/ha): 6.1
Average number of fungal colonies per tomato leaf, Day 9 corrected for Day −1 ([2]; positive = increase, negative = decrease from day −1 to day 9, natamycin 1500 ppm): 5.8
